Key:
[1] = test system: human gastric epithelial (AGS) cells infected with H. pylori (ATCC 43504); experiment: Incidence of H. pylori-induced cell death (MTT assay-1); type: cell-based; details: FIG. 1
Description: In order to determine cytoprotective properties of revaprazan against H. pylori infection, gastric mucosal cells were pretreated with revaprazan and rebamipide prior to H. pylori infection, and the incidence of cell death was measured. Rebamipide, known to have cytoprotective properties, was used as a control drug.
The human gastric epithelial (AGS, KCLB 21739) cells were seeded onto 96-well plate at 5×10^4 cells/ml and cultured in RPMI 1640 (Gibco BRL, Grand Island, N.Y., U.S.A.), supplemented with 100 units/mL penicillin, 100 ug/mL streptomycin, and 10% FBS (Fetal Bovine Serum). Revaprazan and rebamipide, dissolved in sterilized water, were added to AGS cells to reach a final concentration of 50 uM and the cells were incubated at 37° C. for 16 hours. To remove RPMI 1640 media, the plate was centrifuged at 24° C., 3000 rpm for 5 minutes and washed three times with PBS (137 mM NaCl, 2.7 mM KCl, 10 mM Na2HPO4, and 2 mM KH2PO4). For inoculation, H. pylori (ATCC 43504) cultures were resuspended in PBS and cocultured with AGS cells at a final concentration of 5×10^8 CFU/ml. After 48 hours of incubation at 37° C., the culture was centrifuged at 24° C., 3000 rpm for 5 minutes to remove the culture medium, i.e., RPMI 1640, and then total viable cell numbers were assessed by MTT (3-[4,5-dimethylthiazol-2-yl]-2,5-diphenyl tetrazolim bromide) assay method. 1 mg/ml of an MTT solution prepared by dissolving MTT (Amresco, Ohio, U.S.A.) in PBS (137 mM NaCl, 2.7 mM KCl, 10 mM Na2HPO4, and 2 mM KH2PO4) was added to each well (50 μl/well), followed by incubation at 37° C. for 4 hours. The supernatant was then removed by centrifugation at 24° C., 3000 rpm for 5 minutes and the formazan grains formed by the viable cells were dissolved in 99.5% dimethyl sulfoxide (DMSO) (Kanto, Tokyo, Japan) (50 μl/well), and the optical intensity was measured at 540 nm using an ELISA reader (TECAN, Maennedorf, Switzerland).

interleukin-8 (IL-8) = experiment: Expression level of IL-8 in sulindac-treated cells (RT-PCR); type: cell-based, rat; details: RGM-1 cells, revaprazan 25 uM (rebamipide 50 uM) 16 hours, then sulindac 100 uM 8 hours, FIG. 6
Description: (§1) In order to evaluate cytoprotective effect of revaprazan, 100 μM of sulindac belonging to NSAIDs was added to the rat cells, and the expression levels of pro-angiogenic growth factors, VEGF (Vascular Endothelial Growth Factor), interleukin-8 (IL-8), and COX-2 (cyclooxygenase-2) were measured. Rebamipide (50 μM), known to have cytoprotective properties, was used as a control drug and revaprazan (25 μM) was used as a test drug. The rat gastric mucosal (RGM-1, RIKEN cell bank, Japan) cells were seeded in culture dishes at 2×10^6 cells/100 mm^2 and cultured in RPMI 1640 (Gibco BRL, Grand Island, N.Y., U.S.A.), supplemented with 100 units/mL penicillin, 100 ug/mL streptomycin, and 10% FBS (Fetal Bovine Serum). […] The culture media were removed and the cells were washed three times with PBS (137 mM NaCl, 2.7 mM KCl, 10 mM Na2HPO4, and 2 mM KH2PO4). A solution of sulindac in DMSO was added to the cells to reach a final concentration of 100 uM and the cells were cultured at 37° C. for 8 hours. The cultured cells were collected by centrifugation at 23° C. at 3000 rpm for 3 minutes, and the total RNA was isolated from the cells using the TRIzol reagent (Life technologies, Milan, Italy). Sterilized RNase-free water was added to 2 μg of the total RNA and 1 μl of 10 pmol/λ oligo dT to obtain reaction solutions with a volume of 34 μl. […]

COX-2 (cyclooxygenase-2) = experiment: Expression level of COX-2 in sulindac-treated cells (RT-PCR); type: cell-based, rat; details: RGM-1 cells, revaprazan 25 uM (rebamipide 50 uM) 16 hours, then sulindac 100 uM 8 hours, FIG. 6
Description: as §1

Cc1nc(Nc2ccc(F)cc2)nc(N2CCc3ccccc3C2C)c1C (stereo not shown) [revaprazan, 5,6-dimethyl-2-(4-fluorophenylamino)-4-(1-methyl-1,2,3,4-tetrahydroisoquinolin-2-yl)pyrimidine]
cytoprotective effect against H. pylori-induced cytotoxicity compared with rebamipide ([1]; 50 uM each): equal to or greater than rebamipide | gastric mucosal cytotoxicity by H. pylori infection ([1]; 50 uM pretreatment for 16 hours, then 48-hour H. pylori infection): significantly reduced | expression level of IL-8 versus rebamipide-sulindac treatment group (interleukin-8 (IL-8)): much higher | expression level of COX-2 versus rebamipide-sulindac treatment group (COX-2 (cyclooxygenase-2)): much higher

— patent publication US7776873B2, “Method for treating damage to gastric mucosa” (Yuhan Corporation, priority 2005, dated 2010)
